Test results: patent publication US11878970B2, “Allosteric chromenone inhibitors of phosphoinositide 3-kinase (PI3K) for the treatment of disease” (Petra Pharma Corporation, priority 2021, dated 2024)

Experiments:
[1] = target: T1, PI3K-α (PIK3CA) wild-type (WT), p110α/p85α complex (Homo sapiens, UniProt P42336); test: PI3K-alpha kinase (PIK3CA) biochemical activity, ADP-Glo, wild-type
T1 construct: Recombinant, catalytically active human full length PIK3KA Wild-type and H1047R mutant; 6×His (N); purchased EMD Millipore Sigma 14-602M
Procedure, shortened: (§1)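 ADP formation measured by ADP-Glo luminescence after reaction at 27 °C to about 10% ATP turnover, using 20 uM ATP, 50 uM PIP2diC8 or soy PI lipid, HEPES pH 7.4 with MgCl2. Enzyme (1-5 nM WT or H1047R p110α/p85α) and compound preincubated 1 h first; 10-point 1:3 curves fitted four-parameter for IC50.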

[2] = target: T2, PI3K-α (PIK3CA) H1047R mutant, p110α/p85α complex (Homo sapiens, UniProt P42336, H1047R); test: PI3K-alpha kinase (PIK3CA) biochemical activity, ADP-Glo, H1047R mutant
T2 construct: Recombinant, catalytically active human full length PIK3KA Wild-type and H1047R mutant; 6×His (N); purchased EMD Millipore Sigma 14-792M
Procedure, shortened: as §1

[3] = target: PI3K-α (PIK3CA) in MDA-MB-453 cells (Homo sapiens, UniProt P42336); test: PI3K-alpha kinase (PIK3CA) in vitro cell based assay, MDA-MB-453 cells, SureFire Ultra AlphaLisa; conditions: read-out: PI3K-α (PIK3CA) in vitro cell based assay IC50
Procedure, shortened: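 Cells treated 3 h in serum-free MEM with 1 μg/mL insulin, 10-point 1:3 series in 0.3% DMSO, then lysed for SureFire Ultra AlphaLisa read-out. Inhibition normalized to DMSO (max) and 1 μM GDC-0032 (min); duplicate averages fitted by 4-parameter logistic for relative IC50.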

[4] = PIP2diC8 lipid substrate (footnote 1)

PI3K-α (PIK3CA) in MDA-MB-453 cells, sequence (P27986 2-724): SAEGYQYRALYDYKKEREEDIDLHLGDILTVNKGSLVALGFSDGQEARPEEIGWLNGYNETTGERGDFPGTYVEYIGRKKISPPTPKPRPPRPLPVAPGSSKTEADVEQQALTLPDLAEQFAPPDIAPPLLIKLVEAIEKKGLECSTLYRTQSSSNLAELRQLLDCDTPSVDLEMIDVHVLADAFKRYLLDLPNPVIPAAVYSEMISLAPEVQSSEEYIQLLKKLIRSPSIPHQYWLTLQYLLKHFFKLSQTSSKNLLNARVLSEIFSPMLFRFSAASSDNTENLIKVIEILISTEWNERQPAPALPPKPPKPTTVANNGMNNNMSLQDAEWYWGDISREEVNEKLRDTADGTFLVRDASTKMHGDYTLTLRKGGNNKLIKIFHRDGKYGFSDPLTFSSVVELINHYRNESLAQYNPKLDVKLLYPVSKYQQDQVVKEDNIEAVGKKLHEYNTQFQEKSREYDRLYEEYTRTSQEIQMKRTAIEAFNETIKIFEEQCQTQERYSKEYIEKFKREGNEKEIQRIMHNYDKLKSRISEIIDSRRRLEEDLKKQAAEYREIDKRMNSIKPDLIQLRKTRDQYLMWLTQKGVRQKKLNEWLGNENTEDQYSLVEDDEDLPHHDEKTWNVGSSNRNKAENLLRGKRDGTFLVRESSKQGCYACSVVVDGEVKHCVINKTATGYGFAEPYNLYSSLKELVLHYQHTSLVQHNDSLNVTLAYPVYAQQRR
PI3K-α (PIK3CA) in MDA-MB-453 cells, sequence (P42336 whole entry): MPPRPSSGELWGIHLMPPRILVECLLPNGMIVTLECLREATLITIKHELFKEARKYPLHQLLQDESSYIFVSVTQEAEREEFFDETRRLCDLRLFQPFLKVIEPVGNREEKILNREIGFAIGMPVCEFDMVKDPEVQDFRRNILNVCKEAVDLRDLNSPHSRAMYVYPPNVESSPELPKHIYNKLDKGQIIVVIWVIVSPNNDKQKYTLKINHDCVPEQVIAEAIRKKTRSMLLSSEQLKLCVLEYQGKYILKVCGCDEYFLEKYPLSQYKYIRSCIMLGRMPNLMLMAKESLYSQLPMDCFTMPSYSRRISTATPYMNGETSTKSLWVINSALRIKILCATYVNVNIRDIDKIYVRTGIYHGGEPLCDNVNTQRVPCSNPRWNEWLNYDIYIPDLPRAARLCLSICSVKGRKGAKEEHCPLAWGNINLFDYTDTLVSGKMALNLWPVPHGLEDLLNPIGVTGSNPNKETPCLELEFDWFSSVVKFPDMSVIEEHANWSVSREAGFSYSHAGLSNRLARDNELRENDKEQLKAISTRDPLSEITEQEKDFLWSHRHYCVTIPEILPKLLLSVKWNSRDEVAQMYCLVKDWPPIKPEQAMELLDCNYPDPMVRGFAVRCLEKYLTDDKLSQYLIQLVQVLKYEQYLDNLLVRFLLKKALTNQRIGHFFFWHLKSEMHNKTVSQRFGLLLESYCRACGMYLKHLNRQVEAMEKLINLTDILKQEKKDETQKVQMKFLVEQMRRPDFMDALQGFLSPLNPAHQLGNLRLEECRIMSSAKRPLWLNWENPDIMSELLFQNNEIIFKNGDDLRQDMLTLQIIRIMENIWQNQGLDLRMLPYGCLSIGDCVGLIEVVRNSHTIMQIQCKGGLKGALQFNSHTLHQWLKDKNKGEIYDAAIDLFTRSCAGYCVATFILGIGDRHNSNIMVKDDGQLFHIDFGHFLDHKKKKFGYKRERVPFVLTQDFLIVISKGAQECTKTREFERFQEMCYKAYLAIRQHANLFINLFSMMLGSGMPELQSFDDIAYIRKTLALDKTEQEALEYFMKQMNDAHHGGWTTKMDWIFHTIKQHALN
T2 sequence (P42336 whole entry H1047R): as the sequence (P42336 whole entry) above, with H1047R counted along it
T2 sequence (P27986 whole entry partner): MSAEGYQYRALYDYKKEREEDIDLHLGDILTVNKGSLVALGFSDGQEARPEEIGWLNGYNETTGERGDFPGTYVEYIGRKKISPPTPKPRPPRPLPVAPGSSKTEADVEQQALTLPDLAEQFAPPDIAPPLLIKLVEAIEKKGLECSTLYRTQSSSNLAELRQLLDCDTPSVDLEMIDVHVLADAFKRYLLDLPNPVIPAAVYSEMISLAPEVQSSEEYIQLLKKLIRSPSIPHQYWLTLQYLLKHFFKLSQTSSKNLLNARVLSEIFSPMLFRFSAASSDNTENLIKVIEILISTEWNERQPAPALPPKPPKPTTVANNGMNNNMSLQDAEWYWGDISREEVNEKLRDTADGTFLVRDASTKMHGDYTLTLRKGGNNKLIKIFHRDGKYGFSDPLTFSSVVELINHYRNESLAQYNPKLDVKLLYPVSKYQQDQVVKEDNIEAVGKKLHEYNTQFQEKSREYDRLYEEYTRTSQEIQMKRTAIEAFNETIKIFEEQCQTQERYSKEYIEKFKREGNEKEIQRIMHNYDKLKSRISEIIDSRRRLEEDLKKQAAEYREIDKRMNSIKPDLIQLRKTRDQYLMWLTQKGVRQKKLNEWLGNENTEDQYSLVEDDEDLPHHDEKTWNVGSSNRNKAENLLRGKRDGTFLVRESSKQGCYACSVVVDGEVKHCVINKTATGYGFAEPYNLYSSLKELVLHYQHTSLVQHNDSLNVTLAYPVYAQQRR

Row | IC50 ([1]; Soy PI lipid substrate) | IC50 ([2]; Soy PI lipid substrate) | IC50 [3] | Structure (SMILES) | IC50 [1, 4] | IC50 [2, 4]
1 | < 500 nM | < 500 nM | < 50 nM | Cc1cc(C(C)Nc2ccc(Cl)nc2C(=O)O)c2oc(-c3ccc4c(c3)c(C)nn4C)cc(=O)c2c1 (single isomer, unassigned) [Example 224, 6-Chloro-3-[1-[2-(1,3-dimethylindazol-5-yl)-6-methyl-4-oxo-chromen-8-yl]ethylamino]pyridine-2-carboxylic acid] | – | –
2 | < 500 nM | < 500 nM | 100 to 500 nM | Cc1cc([C@@H](C)Nc2cccc(F)c2C(=O)O)c2oc(-c3ccc4nc(C)cn4c3)c(C)c(=O)c2c1 [Example 229, 2-[[(1R)-1-[3,6-Dimethyl-2-(2-methylimidazo[1,2-a]pyridin-6-yl)-4-oxo-chromen-8-yl]ethyl]amino]-6-fluoro-benzoic acid] | – | –
3 | > 10000 nM | 1000 to 5000 nM | 100 to 500 nM | Cc1cc([C@@H](C)Nc2cccnc2C(=O)O)c2oc(-c3ccc4nc(C)sc4n3)cc(=O)c2c1 [Example 239, 3-[[(1R)-1-[6-Methyl-2-(2-methylthiazolo[5,4-b]pyridin-5-yl)-4-oxo-chromen-8-yl]ethyl]amino]pyridine-2-carboxylic acid] | – | –
4 | 1000 to 5000 nM | > 10000 nM | > 500 nM | Cc1cc(C(C)Nc2ccccc2C(=O)O)c2oc(-c3ccc4nc(C)cn4c3)cc(=O)c2c1 (single isomer, unassigned) [Example 37, 2-[1-[6-Methyl-2-(2-methylimidazo[1,2-a]pyridin-6-yl)-4-oxo-chromen-8-yl]ethylamino]benzoic acid] | – | –
5 | 5000 to 10000 nM | 1000 to 5000 nM | 100 to 500 nM | Cc1cc([C@@H](C)Nc2ccc(C)nc2C(=O)O)c2oc(-c3ccc4nc(C)sc4n3)cc(=O)c2c1 [Example 250, 6-Methyl-3-[[(1R)-1-[6-methyl-2-(2-methylthiazolo[5,4-b]pyridin-5-yl)-4-oxo-chromen-8-yl]ethyl]amino]pyridine-2-carboxylic acid] | – | –
6 | 500 to 1000 nM | < 500 nM | 50 to 100 nM | Cc1cc(C(C)Nc2ccc(Cl)nc2C(=O)O)c2oc(-c3ccc4nc(C)cn4c3)c(C)c(=O)c2c1 (single isomer, unassigned) [Example 178, 6-Chloro-3-[1-[3,6-dimethyl-2-(2-methylimidazo[1,2-a]pyridin-6-yl)-4-oxo-chromen-8-yl]ethylamino]pyridine-2-carboxylic acid] | – | –
7 | 1000 to 5000 nM | 1000 to 5000 nM | 100 to 500 nM | Cc1cc([C@@H](C)Nc2cccnc2C(=O)O)c2oc(-c3ccc4nc(C)sc4n3)c(C)c(=O)c2c1 [Example 243, 3-[[(1R)-1-[3,6-Dimethyl-2-(2-methylthiazolo[5,4-b]pyridin-5-yl)-4-oxo-chromen-8-yl]ethyl]amino]pyridine-2-carboxylic acid] | – | –
8 | 1000 to 5000 nM | < 500 nM | 100 to 500 nM | Cc1cc([C@@H](C)Nc2ccc(C)nc2C(=O)O)c2oc(-c3ccc4nc(C)cn4c3)cc(=O)c2c1 [Example 225, 6-Methyl-3-[[(1R)-1-[6-methyl-2-(2-methylimidazo[1,2-a]pyridin-6-yl)-4-oxo-chromen-8-yl]ethyl]amino]pyridine-2-carboxylic acid] | – | –
9 | < 500 nM | < 500 nM | < 50 nM | Cc1cc([C@@H](C)Nc2ccc(Br)nc2C(=O)O)c2oc(-c3ccc4nc(C)sc4n3)c(C)c(=O)c2c1 [Example 245, 6-Bromo-3-[[(1R)-1-[3,6-dimethyl-2-(2-methylthiazolo[5,4-b]pyridin-5-yl)-4-oxo-chromen-8-yl]ethyl]amino]pyridine-2-carboxylic acid] | – | –
10 | 500 to 1000 nM | < 500 nM | 100 to 500 nM | Cc1cc(-c2cc(=O)c3cc(C(F)(F)F)cc(C(C)Nc4ccc(Cl)nc4C(=O)O)c3o2)cc2cn(C)nc12 (single isomer, unassigned) [Example 191, 6-Chloro-3-[1-[2-(2,7-dimethylindazol-5-yl)-4-oxo-6-(trifluoromethyl)chromen-8-yl]ethylamino]pyridine-2-carboxylic acid] | – | –

Second part, the compound before the results:

Row | Structure (SMILES) | IC50 ([1]; Soy PI lipid substrate) | IC50 ([2]; Soy PI lipid substrate) | IC50 [3] | IC50 [1, 4] | IC50 [2, 4]
11 | Cc1cc(C(C)Nc2ccccc2C(=O)O)c2oc(-c3ccc4cc[nH]c4n3)cc(=O)c2c1 (single isomer, unassigned) [Example 4, 2-[1-[6-Methyl-4-oxo-2-(1H-pyrrolo[2,3-b]pyridin-6-yl)chromen-8-yl]ethylamino]benzoic acid] | 500 to 1000 nM | < 500 nM | < 50 nM | – | –
12 | Cc1cc(C(C)Nc2ccc(Cl)nc2C(=O)O)c2oc(-c3ccc4cc[nH]c4n3)cc(=O)c2c1 (stereo not drawn) [Example 195, 6-Chloro-3-[1-[6-methyl-4-oxo-2-(1H-pyrrolo[2,3-b]pyridin-6-yl)chromen-8-yl]ethylamino]pyridine-2-carboxylic acid] | 500 to 1000 nM | < 500 nM | < 50 nM | – | –
13 | CC(Nc1ccc(Cl)nc1C(=O)O)c1cc(C(F)(F)F)cc2c(=O)cc(-c3cc(Cl)c4nn(C)cc4c3)oc12 (single isomer, unassigned) [Example 193, 6-Chloro-3-[1-[2-(7-chloro-2-methyl-indazol-5-yl)-4-oxo-6-(trifluoromethyl)chromen-8-yl]ethylamino]pyridine-2-carboxylic acid] | 500 to 1000 nM | < 500 nM | < 50 nM | – | –
14 | Cc1cc([C@@H](C)Nc2cccc(F)c2C(=O)O)c2oc(-c3nn(C)c4ccccc34)c(C)c(=O)c2c1 [Example 230, 2-[[(1R)-1-[3,6-Dimethyl-2-(1-methylindazol-3-yl)-4-oxo-chromen-8-yl]ethyl]amino]-6-fluoro-benzoic acid] | < 500 nM | < 500 nM | 50 to 100 nM | – | –
15 | Cc1cc(C(C)Nc2ccccc2C(=O)O)c2oc(-c3cc4ccncc4o3)cc(=O)c2c1 (stereo not drawn) [Example 7, 2-[1-(2-Furo[2,3-c]pyridin-2-yl-6-methyl-4-oxo-chromen-8-yl)ethylamino]benzoic acid] | – | – | 50 to 100 nM | < 500 nM | < 500 nM
16 | Cc1cc(C(C)Nc2ccccc2C(=O)O)c2oc(-c3ccc4[nH]ncc4c3)cc(=O)c2c1 (single isomer, unassigned) [Example 60, 2-[1-[2-(1H-Indazol-5-yl)-6-methyl-4-oxo-chromen-8-yl]ethylamino]benzoic acid] | 500 to 1000 nM | < 500 nM | < 50 nM | – | –
17 | Cc1cc(C(C)Nc2ccccc2C(=O)O)c2oc(-c3ccc4c(c3)OC(F)(F)O4)cc(=O)c2c1 (single isomer, unassigned) [Example 64, 2-[1-[2-(2,2-Difluoro-1,3-benzodioxol-5-yl)-6-methyl-4-oxo-chromen-8-yl]ethylamino]benzoic acid] | 1000 to 5000 nM | < 500 nM | < 50 nM | – | –
18 | Cc1cc(C(C)Nc2ccccc2C(=O)O)c2oc(-c3cnc4ccccn34)cc(=O)c2c1 (single isomer, unassigned) [Example 145, 2-[1-(2-Imidazo[1,2-a]pyridin-3-yl-6-methyl-4-oxo-chromen-8-yl)ethylamino]benzoic acid] | 1000 to 5000 nM | < 500 nM | 100 to 500 nM | – | –
19 | Cc1cc([C@@H](C)Nc2cccnc2C(=O)O)c2oc(-c3nn(C)c4ccccc34)c(C)c(=O)c2c1 [Example 205, 3-[[(1R)-1-[3,6-Dimethyl-2-(1-methylindazol-3-yl)-4-oxo-chromen-8-yl]ethyl]amino]pyridine-2-carboxylic acid] | > 10000 nM | 1000 to 5000 nM | 50 to 100 nM | – | –
